In paper PMC7588595, “Small-molecule active pharmaceutical ingredients of approved cancer therapeutics inhibit human aspartate/asparagine-β-hydroxylase” (Bioorganic & Medicinal Chemistry, 2020):

Target: T1, human AspH (His6-AspH315–758) (Homo sapiens, UniProt Q12797)
T1 construct: N-Terminally His6-tagged human AspH315–758 (His6-AspH315–758) was produced in Escherichia coli BL21 (DE3) cells; made in house; host or cells: Escherichia coli BL21 (DE3), pET-28a(+) vector
T1 sequence (Q12797 315-758): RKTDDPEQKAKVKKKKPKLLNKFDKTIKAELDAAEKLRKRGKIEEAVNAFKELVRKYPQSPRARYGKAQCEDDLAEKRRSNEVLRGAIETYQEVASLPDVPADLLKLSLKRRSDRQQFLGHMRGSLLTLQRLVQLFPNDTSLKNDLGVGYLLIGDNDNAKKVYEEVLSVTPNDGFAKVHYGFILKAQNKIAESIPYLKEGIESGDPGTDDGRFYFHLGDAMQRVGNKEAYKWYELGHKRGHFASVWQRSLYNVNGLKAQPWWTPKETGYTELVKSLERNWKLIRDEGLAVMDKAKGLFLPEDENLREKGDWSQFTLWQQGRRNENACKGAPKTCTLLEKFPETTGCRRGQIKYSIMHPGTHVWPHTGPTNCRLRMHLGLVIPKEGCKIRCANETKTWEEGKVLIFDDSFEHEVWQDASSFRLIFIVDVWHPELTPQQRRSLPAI
Assay: SPE-MS AspH inhibition assay (hFX-CP101-119 substrate hydroxylation)
Format: biochemical
Settings: AspH-inhibitor screening; for Plate 1 (% inhibition): 384-well Plate 1; for Plate 1 (% conversion): 384-well Plate 1, substrate conversion; for Plate 1-duplicate (% conversion): substrate conversion

| Compound | Plate 1 (% inhibition) [%] | Plate 1 (% conversion) [%] | Plate 1-duplicate (% inhibition) [%] | Plate 1-duplicate (% conversion) [%] |
| --- | --- | --- | --- | --- |
| CN1CCC(COc2cnc(-c3cccc(Cn4nc(-c5cccc(C#N)c5)ccc4=O)c3)nc2)CC1 [EMD1214063] | 3.55 | 48.11 | 3.19 | 50.46 |
| CC[C@@H]1C(=O)N(C)c2cnc(Nc3ccc(C(=O)N[C@H]4CC[C@H](N5CCN(CC6CC6)CC5)CC4)cc3OC)nc2N1C(C)C [BI 6727_Volasertib] | -9.00 | 53.91 | -19.71 | 61.82 |
| CCNC(=O)c1noc(-c2cc(C(C)C)c(O)cc2O)c1-c1ccc(CN2CCOCC2)cc1 [NVP-AUY922] | -7.77 | 53.34 | -12.32 | 58.15 |
| O=C1NC(=O)[C@@H](c2cn3c4c(cccc24)CCC3)[C@@H]1c1c[nH]c2ccccc12 [ARQ 197_Tivantinib] | -6.95 | 52.96 | -13.62 | 58.79 |
| CC[C@@]1(O)C(=O)OCc2c1cc1n(c2=O)Cc2cc3ccccc3nc2-1 [Camptothecin] | 4.52 | 47.66 | 4.34 | 49.89 |
| CNC(=O)c1ccc(N2C(=S)N(c3ccc(C#N)c(C(F)(F)F)c3)C(=O)C2(C)C)cc1F [Enzalutamide] | -2.61 | 50.95 | -6.89 | 55.46 |
| C/C(=C\c1csc(C)n1)[C@@H]1C[C@@H]2O[C@]2(C)CCC[C@H](C)[C@H](O)[C@@H](C)C(=O)C(C)(C)[C@@H](O)CC(=O)O1 [Epothilone B (Patupilone)] | -5.33 | 52.21 | -7.34 | 55.68 |
| COc1cc2nccc(Oc3ccc(NC(=O)NC4CC4)c(Cl)c3)c2cc1C(N)=O [Lenvatinib] | -19.98 | 58.98 | -15.77 | 59.86 |

The remaining lines, values ahead:

| Plate 1 (% inhibition) [%] | Plate 1 (% conversion) [%] | Plate 1-duplicate (% inhibition) [%] | Plate 1-duplicate (% conversion) [%] | Compound |
| --- | --- | --- | --- | --- |
| -64.58 | 79.57 | -62.78 | 83.18 | COc1cc2c(Oc3ccc(NC(=O)C4(C(=O)Nc5ccc(F)cc5)CC4)cc3F)ccnc2cc1OCCCN1CCOCC1 [XL880 (Foretinib)] |
| 10.42 | 44.94 | 2.79 | 50.66 | CS(=O)(=O)c1ccc(C(=O)Nc2ccc(Cl)c(-c3ccccn3)c2)c(Cl)c1 [Vismodegib] |
| 0.65 | 49.45 | -9.59 | 56.80 | C=CC(=O)N1CCC[C@@H](n2nc(-c3ccc(Oc4ccccc4)cc3)c3c(N)ncnc32)C1 [PCI-32765_Ibrutinib] |
| -10.38 | 54.54 | -7.89 | 55.95 | Cc1cn(-c2cc(NC(=O)c3ccc(C)c(Nc4nccc(-c5cccnc5)n4)c3)cc(C(F)(F)F)c2)cn1 [Nilotinib] |
| -11.59 | 55.10 | -0.06 | 52.07 | Cc1ccc([N+](=O)[O-])cc1S(=O)(=O)N(C)/N=C/c1cnc2ccc(Br)cn12.Cl [PIK-75 HCl] |
| 50.93 | 26.23 | 41.45 | 31.48 | CNC(=O)c1cc(Oc2ccc(NC(=O)Nc3ccc(Cl)c(C(F)(F)F)c3)cc2)ccn1 [Sorafenib] |
